Results on one compound are retold here after patent US9861616B2, “Methods for treating respiratory diseases and formulations therefor” (priority 2013, dated 2018).

In series [1] the test system is P. aeruginosa PA403. Briefly: MIC by microdilution with PaβN or EGTA, efflux-deleted laboratory strain. It is filed as cell-based. As for the experimental part:
(§1) The compounds described herein are poor substrates of efflux pumps expressed in P. aeruginosa (PA). MICs of 36 clinical and laboratory strains of PA with known efflux phenotype are measured by microdilution in cation-adjusted Muller-Hinton broth (CA-MHB) or in RPMI medium (commonly used in eukaryotic cell culture). Phe-Arg-β-naphthylamide (PaβN, 50 mg/L) and EGTA 5 mM are used to inhibit efflux pumps and alter OM integrity, respectively. P. aeruginosa strain ATCC PAO1 is used as reference. PA12 is a clinical strain overexpressing the 4 main efflux systems (MexAB, MexCD, MexEF, MexXY), PA403 is a laboratory strain deleted in the genes coding for the 4 efflux systems. A series of reference strains or of clinical isolates for which the expression of genes coding for efflux pumps is known is also used for MICs determinations. MICs are measured by microdilution in MH broth or in RPMI medium (used for eukaryotic cells culture) supplemented with 10% of fetal calf serum, or in MH broth supplemented by increasing amounts of serum. EGTA (5 mM) was used as a chelating agent (disrupting outer membrane integrity) and PaβN (50 mg/L) as an unspecific efflux inhibitor.
On the technique in general: Dilution methods test growth across graded concentrations, often in twofold steps.

Series [2] deals with MMP9 activity. The experiment in a line: PMA-induced MMP9 activation in U937 cells (gelatin zymography). It is filed as cell-based, human. The conditions noted are these: read-out: IC50, PMA-induced MMP9 activation. As for the experimental part: Effects of macrolides on phorbol 12-myristate 13-acetate (PMA)-induced MMP9 activation in U937 cells. […] After 48 h supernatants were collected for zymography. MMP9 enzyme activity was measured by gelatin zymography. Data are expressed relative to standard.
(§2) The human monocytic cell line U937 was obtained from the American Type Culture Collection (ATCC, Rockville, Md.). PBMCs from COPD patients were obtained from Brompton hospital and separated by AccuSPIN (Sigma-Aldrich). Cells were cultured in complete growth medium (RPMI 1640) (Sigma-Aldrich) supplemented with 10% fetal bovine serum (FBS) and 1% L-glutamine at 37° C. in a humidified atmosphere with 5% CO2. U937 cells were differentiated into adherent macrophage-like morphology by exposure to PMA (50 ng/mL) for 48 hrs in complete growth medium. Cell viability was assessed microscopically by trypan blue staining. Cell toxicity was determined by MTT assay as needed. This study was approved by the ethics committee of the Royal Brompton Hospitals, and all subjects gave written informed consent.
MMP9 enzyme activity was measured by gelatin zymography. Cell culture supernatants were diluted with equal amount of Laemli sample buffer (Bio-Rad, Hertfordshire, UK) and loaded on a Novex® 10% Zymogram (Gelatin) gel (Invitrogen Ltd, Paisley, UK). After electrophoresis, gels were incubated and rinsed with Novex® zymogram renaturing buffer (Invitrogen) for 30 min at room temperature. The gels were then rinsed in Novex® zymogram developing buffer (Invitrogen) for 30 min at room temperature prior to overnight incubation in the developing buffer at 37° C. After incubation, the gels were stained using a Colloidal Blue Staining Kit (Invitrogen) to visualize the zymogen bands.
(§3) The results were expressed as the mean±SEM. Comparisons of data in two groups were performed using the Student's t test or the Wilcoxon signed rank test. Multiple comparisons were made by one-way ANOVA with post hoc test (Dunnett's) as appropriate. The difference was considered significant at p<0.05. IC50 values (50% inhibitory concentration) for macrolides for production of cytokines or MMP9 were calculated using Prism 4.0 (GraphPad Software Inc., San Diego, Calif.).

Series [3] can be described thus: Tissue distribution. It is filed as in vivo. The conditions noted are these: rat. The protocol:
CEM-101 is well absorbed and distributed to the tissue. In the rat at 250 mg/kg/d, mean lung and liver concentrations 5 of CEM-101 were 17 and 15-fold higher than in plasma.

The test system of series [4] is MRSA SA 2230, SA 2232. Briefly: Time-kill macrobroth MICs. It is filed as cell-based, S. aureus. The protocol:
Original MICs of each strain to CEM-101 and other comparators were tested by CLSI microdilution methodology. Trays were obtained from Trek, Inc., Cleveland, Ohio. Time-kill macrobroth MIC dilution by CLSI was performed for all synergy testing.
Two of the MRSA strains were chosen and tested for synergy, together with the 4 Gram-negative strains mentioned above. Broth macrodilution formed the basis of MICs used in time-kill experiments, as detailed below. The kill kinetics of each drug was tested alone by incubating an initial inoculum of 5×10^5 to 5×10^6 cfu/mL with drug concentrations at the MIC, three dilutions above and three dilutions below the MIC (½, ¼ and ⅛×MIC). Viability counts were performed after 0, 3, 6, 12 and 24 h incubation at 37° C. in a shaking water bath by plating onto trypticase soy-5% sheep blood agar plates.

The subject of series [5] is IL-8 (CXCL8) release. The experiment in a line: LPS-induced IL-8 (CXCL8) release in PMA-differentiated U937 cells (ELISA). The format is cell-based, human. The protocol:
Effects of macrolides on lipopolysaccharide (LPS)-induced CXCL8 release in PMA-differentiated U937 cells. […] LPS-induced CXCL8 release was evaluated by ELISA. Values represent means of three experiments±SEM. ^##p<0.01 (vs. non-treatment control), *p<0.05, **p<0.01 (vs. treatment with LPS only).
as §2
TNFα and IL-8 concentrations in the supernatant of cell cultures were determined by sandwich ELISA according to the manufacturer's instructions (R&D Systems Europe, Abingdon, UK).
as §3
Background: In an ELISA, binding on a coated surface is turned into a signal by an enzyme label.

For series [6], the system named is P. aeruginosa PAO1. The experiment in a line: MIC by microdilution with PaβN or EGTA, wild-type strain. It is filed as cell-based. As for the experimental part:
as §1, with “MICs” for “The compounds described herein are poor substrates of efflux pumps expressed in P. aeruginosa (PA). MICs”

Values after ≈ are worked out from the molar mass of the structure shown.

Turning to `CC[C@H]1OC(=O)[C@@](C)(F)C(=O)[C@H](C)[C@@H](O[C@@H]2O[C@H](C)C[C@H](N(C)C)[C@H]2O)[C@](C)(OC)C[C@@H](C)C(=O)[C@H](C)[C@H]2N(CCCCn3cc(-c4cccc(N)c4)nn3)C(=O)O[C@]12C` [CEM-101, solithromycin], the MIC – broadly, the smallest concentration in the dilution series that meets the test's criterion for growth inhibition – worked out at 1 µg/mL (≈ 1.18 µM) in series [1] (P403, CA-MHB, EGTA 5 mM); 4 µg/mL (≈ 4.73 µM) in series [1] (P403, CA-MHB, control conditions (CT)); 0.25 µg/mL (≈ 0.296 µM) in series [1] (P403, RPMI, EGTA 5 mM); 2 µg/mL (≈ 2.37 µM) in series [1] (P403, RPMI, PaβN 50 mg/L); 1 µg/mL (≈ 1.18 µM) in series [1] (P403, RPMI, control conditions (CT)); 8 µg/mL (≈ 9.47 µM) in series [6] (PAO1, CA-MHB, EGTA 5 mM). Besides, the MIC in series [6] (PAO1, CA-MHB, PaβN 50 mg/L) stood at 8 µg/mL (≈ 9.47 µM); in series [6] (PAO1, CA-MHB, control conditions (CT)), 32 µg/mL (≈ 37.9 µM); in series [6] (PAO1, RPMI, EGTA 5 mM), 1 µg/mL (≈ 1.18 µM); in series [6] (PAO1, RPMI, PaβN 50 mg/L), 2 µg/mL (≈ 2.37 µM); in series [6] (PAO1, RPMI, control conditions (CT)), 2 µg/mL (≈ 2.37 µM). In addition, the IC50 (as a rule, the concentration that inhibits the measured activity by half) in series [2] was found to be 14.9 ± 3.1 µM; in series [5] (PMA-differentiated U937 cells, read-out: IC50, LPS-induced IL-8 (CXCL8) release) it was 78.2 ± 9.5 µM. Moreover, the “heart concentration relative to plasma” value in series [3] came out at 5 fold. The “mean liver concentration relative to plasma” value in series [3] (250 mg/kg/d) came out at 15 fold. In addition, the “mean lung concentration relative to plasma” value in series [3] (250 mg/kg/d) was 17 fold. Besides, the “Time-kill Macrobroth MIC” value in series [4] (strain SA 2230) and in series [4] (strain SA 2232) was 0.125 µg/mL in each case. Further, the “effect on CXCL8 production” value in series [5] (at 100 μM) is “significantly inhibited”.
